Results reported in patent publication US20210215714A1, “COMPLEMENT ALTERNATIVE PATHWAY-ASSOCIATED NEPHROPATHY BIOMARKERS” (Achillion Pharmaceuticals, Inc., priority 2018, published 2021).

Tested on: sC5b-9
Test: Phase 2a study: urinary sC5b-9 (MicroVue sC5b-9 Enzyme Immunoassay);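 note: urine from C3 glomerulopathy or IC-MPGN patients, sandwich ELISA capturing sC5b-9 via C9-ring monoclonal with HRP detection read at 450 nm, values raw or normalized to creatinine or albumin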
[1] = Patient A, 100 mg TID, Day 1/0 Hour
[2] = Patient A, 100 mg TID, Day 7/0 Hour
[3] = Patient A, 100 mg TID, Day 15 Taper
[4] = Patient A, 100 mg TID, Day 16 Taper
[5] = Patient A, 100 mg TID, Day 17 Taper
[6] = Patient A, 100 mg TID, Day 21 Taper
[7] = Patient A, 100 mg TID, Follow-Up Day 24
[8] = Patient A, 100 mg TID, Follow-Up Day 28
[9] = Patient A, 100 mg TID, Follow-Up Day 49
[10] = Patient B, 100 mg TID, Day 1/0 Hour
[11] = Patient B, 100 mg TID, Day 7/0 Hour
[12] = Patient B, 100 mg TID, Day 15 Taper
[13] = Patient B, 100 mg TID, Day 16 Taper
[14] = Patient B, 100 mg TID, Day 17 Taper
[15] = Patient B, 100 mg TID, Day 21 Taper
[16] = Patient B, 100 mg TID, Follow-Up Day 24
[17] = Patient B, 100 mg TID, Follow-Up Day 28
[18] = Patient B, 100 mg TID, Follow-Up Day 49
[19] = Patient C, 200 mg TID, Day 1/0 Hour
[20] = Patient C, 200 mg TID, Day 7/0 Hour
[21] = Patient C, 200 mg TID, Day 15 Taper
[22] = Patient C, 200 mg TID, Day 16 Taper
[23] = Patient C, 200 mg TID, Day 17 Taper
[24] = Patient C, 200 mg TID, Day 21 Taper
[25] = Patient C, 200 mg TID, Follow-Up Day 24
[26] = Patient C, 200 mg TID, Follow-Up Day 28
[27] = Patient C, 200 mg TID, Follow-Up Day 49
[28] = Patient C, 200 mg TID, Screen 1
[29] = Patient D, 200 mg TID, Day 1/0 Hour
[30] = Patient D, 200 mg TID, Day 7/0 Hour
[31] = Patient D, 200 mg TID, Day 15 Taper
[32] = Patient D, 200 mg TID, Day 17 Taper

Excerpt: 10 patients with either C3 Glomerulopathy (C3G) or Immune-Complex Membranoproliferative Glomerulonephritis (IC-MPGN) are to be enrolled across two dose groups. […] Inclusion criteria include a clinical diagnosis of C3G (C3 glomerulonephritis [C3GN] or dense deposit disease [DDD], the 2 types of C3G) or idiopathic immune-complex membranoproliferative glomerulonephritis (IC-MPGN) by renal biopsy for at least 3 months prior to dosing, with the pathologic diagnosis verified by review of the renal biopsy by the study central pathologist. Patients must have low C3 levels (<50% of the lower limit of normal) and normal or near-normal C4 levels (>90% of the lower limit of normal).
To measure urinary sC5b-9 production, patient urine samples were tested utilizing the MicroVue sC5b-9 Enzyme Immunoassay for the quantitation of sC5b-9 in urine. […] The samples were tested utilizing the MicroVue sC5b-9 Enzyme Immunoassay for the quantitation of sC5b-9 urine, which is a three-step procedure utilizing a micro-assay plate coated with a mouse monoclonal antibody that binds specifically to the C9 ring of sC5b-9, HRP-conjugated antibodies to antigens of sC5b-9, and a chromogenic substrate. In step 1, standards, controls, and test specimens are added to micro-assay wells pre-coated with an anti-sC5b-9 specific monoclonal antibody. sC5b-9 present in the Standards, Controls, or specimens will bind to the immobilized sC5b-9 monoclonal antibody. After incubation, a wash cycle removes unbound material. […] In step 2, horseradish peroxidase (HRP)-conjugated antibodies to antigens of sC5b-9 are added to each test well. The enzyme conjugated antibodies bind to sC5b-9 that was captured by the monoclonal anti-sC5b-9 bound on the surface of the micro-assay wells. After incubation, a wash cycle removes unbound, excess conjugate. In step 3, a chromogenic enzyme substrate is added to each micro-assay well. The bound HRP-conjugate reacts with the substrate, forming a blue color. After incubation the enzyme reaction is stopped chemically, the color changes to yellow, and the color intensity is measured spectrophotometrically at 450 nm. The color intensity of the reaction mixture is proportional to the concentration of sC5b-9 present in the test specimens, standards, and controls. […] Measurements of urinary biomarkers are typically normalized to urine creatinine or albumin levels to account for variation in biomarker levels due to changes in urinary filtration rate.

CC(=O)c1nn(CC(=O)N2C[C@H](F)C[C@H]2C(=O)Nc2cccc(Br)n2)c2ccc(-c3cnc(C)nc3)cc12 [Compound 1, (2S,4R)-1-(2-(3-acetyl-5-(2-methylpyrimidin-5-yl)-1H-indazol-1-yl)acetyl)-N-(6-bromopyridin-2-yl)-4-fluoropyrrolidine-2-carboxamide]
sC5b-9/ALB [1]: 38 ng/mg
sC5b-9/Cr [1]: 9.9 µg/mmol
Urine sC5b-9 (Patient A, 100 mg TID, Day 1 predose): 81.2 ng/mL
Urine sC5b-9 (Patient A, 100 mg TID, Day 4): 84.2 ng/mL
sC5b-9/ALB (Patient A, 100 mg TID, Day 4): 48 ng/mg
sC5b-9/Cr (Patient A, 100 mg TID, Day 4): 10.5 µg/mmol
Urine sC5b-9 (Patient A, 100 mg TID, Day 7): 70.4 ng/mL
sC5b-9/ALB [2]: 46 ng/mg
sC5b-9/Cr [2]: 10.7 µg/mmol
Urine sC5b-9 (Patient A, 100 mg TID, Day 10): 52.0 ng/mL
sC5b-9/ALB (Patient A, 100 mg TID, Day 10): 37 ng/mg
sC5b-9/Cr (Patient A, 100 mg TID, Day 10): 8.4 µg/mmol
Urine sC5b-9 [3]: 56.9 ng/mL
sC5b-9/ALB [3]: 54 ng/mg
sC5b-9/Cr [3]: 7.8 µg/mmol
Urine sC5b-9 [4]: 66.2 ng/mL
sC5b-9/ALB [4]: 62 ng/mg
sC5b-9/Cr [4]: 8.8 µg/mmol
Urine sC5b-9 [5]: 84.4 ng/mL
sC5b-9/ALB [5]: 74 ng/mg
sC5b-9/Cr [5]: 8.5 µg/mmol
Urine sC5b-9 [6]: 85.8 ng/mL
sC5b-9/ALB [6]: 70 ng/mg
sC5b-9/Cr [6]: 9.9 µg/mmol
Urine sC5b-9 [7]: 95.0 ng/mL
sC5b-9/ALB [7]: 69 ng/mg
sC5b-9/Cr [7]: 9.5 µg/mmol
Urine sC5b-9 [8]: 79.7 ng/mL
sC5b-9/ALB [8]: 61 ng/mg
sC5b-9/Cr [8]: 8.0 µg/mmol
Urine sC5b-9 [9]: 57.5 ng/mL
sC5b-9/ALB [9]: 92 ng/mg
sC5b-9/Cr [9]: 13.4 µg/mmol
Urine sC5b-9 (Patient A, 100 mg TID, Screen): 76.3 ng/mL
sC5b-9/ALB (Patient A, 100 mg TID, Screen): 40 ng/mg
sC5b-9/Cr (Patient A, 100 mg TID, Screen): 9.2 µg/mmol
sC5b-9/ALB [10]: 1500 ng/mg
sC5b-9/Cr [10]: 866 µg/mmol
Urine sC5b-9 (Patient B, 100 mg TID, Day 1 predose): 5280 ng/mL
Urine sC5b-9 (Patient B, 100 mg TID, Day 4): 2139 ng/mL
sC5b-9/ALB (Patient B, 100 mg TID, Day 4): 637 ng/mg
sC5b-9/Cr (Patient B, 100 mg TID, Day 4): 168 µg/mmol
Urine sC5b-9 (Patient B, 100 mg TID, Day 7): 2266 ng/mL
sC5b-9/ALB [11]: 624 ng/mg
sC5b-9/Cr [11]: 155 µg/mmol
Urine sC5b-9 (Patient B, 100 mg TID, Day 10): 1073 ng/mL
sC5b-9/ALB (Patient B, 100 mg TID, Day 10): 563 ng/mg
sC5b-9/Cr (Patient B, 100 mg TID, Day 10): 143 µg/mmol
Urine sC5b-9 (Patient B, 100 mg TID, Day 14): 4010 ng/mL
sC5b-9/ALB (Patient B, 100 mg TID, Day 14): 911 ng/mg
sC5b-9/Cr (Patient B, 100 mg TID, Day 14): 240 µg/mmol
Urine sC5b-9 [12]: 3334 ng/mL
sC5b-9/ALB [12]: 929 ng/mg
sC5b-9/Cr [12]: 303 µg/mmol
Urine sC5b-9 [13]: 4784 ng/mL
sC5b-9/ALB [13]: 1154 ng/mg
sC5b-9/Cr [13]: 380 µg/mmol
Urine sC5b-9 [14]: 2693 ng/mL
sC5b-9/ALB [14]: 907 ng/mg
sC5b-9/Cr [14]: 238 µg/mmol
Urine sC5b-9 [15]: 2469 ng/mL
sC5b-9/ALB [15]: 821 ng/mg
sC5b-9/Cr [15]: 305 µg/mmol
Urine sC5b-9 [16]: 3958 ng/mL
sC5b-9/ALB [16]: 1380 ng/mg
sC5b-9/Cr [16]: 649 µg/mmol
Urine sC5b-9 [17]: 2376 ng/mL
sC5b-9/ALB [17]: 882 ng/mg
sC5b-9/Cr [17]: 335 µg/mmol
Urine sC5b-9 [18]: 14132 ng/mL
sC5b-9/ALB [18]: 6312 ng/mg
sC5b-9/Cr [18]: 883 µg/mmol
Urine sC5b-9 (Patient B, 100 mg TID, Screen): 2598 ng/mL
sC5b-9/ALB (Patient B, 100 mg TID, Screen): 724 ng/mg
sC5b-9/Cr (Patient B, 100 mg TID, Screen): 351 µg/mmol
sC5b-9/ALB [19]: 203 ng/mg
sC5b-9/Cr [19]: 11.9 µg/mmol
Urine sC5b-9 (Patient C, 200 mg TID, Day 1 predose): 21.5 ng/mL
Urine sC5b-9 (Patient C, 200 mg TID, Day 4): <8.8 ng/mL
sC5b-9/ALB (Patient C, 200 mg TID, Day 4): 173 ng/mg
sC5b-9/Cr (Patient C, 200 mg TID, Day 4): 4.63 µg/mmol
Urine sC5b-9 (Patient C, 200 mg TID, Day 7): <8.8 ng/mL
sC5b-9/ALB [20]: 110 ng/mg
sC5b-9/Cr [20]: 2.38 µg/mmol
Urine sC5b-9 (Patient C, 200 mg TID, Day 10): <8.8 ng/mL
sC5b-9/ALB (Patient C, 200 mg TID, Day 10): 160 ng/mg
sC5b-9/Cr (Patient C, 200 mg TID, Day 10): 5.50 µg/mmol
Urine sC5b-9 (Patient C, 200 mg TID, Day 14): <8.8 ng/mL
sC5b-9/ALB (Patient C, 200 mg TID, Day 14): 220 ng/mg
sC5b-9/Cr (Patient C, 200 mg TID, Day 14): 6.77 µg/mmol
Urine sC5b-9 [21]: <8.8 ng/mL
sC5b-9/ALB [21]: 131 ng/mg
sC5b-9/Cr [21]: 5.87 µg/mmol
Urine sC5b-9 [22]: <8.8 ng/mL
sC5b-9/ALB [22]: 176 ng/mg
sC5b-9/Cr [22]: 4.63 µg/mmol
Urine sC5b-9 [23]: <8.8 ng/mL
sC5b-9/ALB [23]: 126 ng/mg
sC5b-9/Cr [23]: 4.00 µg/mmol
Urine sC5b-9 [24]: 10.3 ng/mL
sC5b-9/ALB [24]: 158 ng/mg
sC5b-9/Cr [24]: 3.67 µg/mmol
Urine sC5b-9 [25]: 11.0 ng/mL
sC5b-9/ALB [25]: 186 ng/mg
sC5b-9/Cr [25]: 6.11 µg/mmol
Urine sC5b-9 [26]: 21.2 ng/mL
sC5b-9/ALB [26]: 154 ng/mg
sC5b-9/Cr [26]: 7.32 µg/mmol
Urine sC5b-9 [27]: 14.0 ng/mL
sC5b-9/ALB [27]: 149 ng/mg
sC5b-9/Cr [27]: 3.04 µg/mmol
Urine sC5b-9 (Patient C, 200 mg TID, Screen): 32.1 ng/mL
sC5b-9/ALB (Patient C, 200 mg TID, Screen): 387 ng/mg
sC5b-9/Cr (Patient C, 200 mg TID, Screen): 16.9 µg/mmol
Urine sC5b-9 [28]: 57.4 ng/mL
sC5b-9/ALB [28]: 422 ng/mg
sC5b-9/Cr [28]: 52.2 µg/mmol
sC5b-9/ALB [29]: 22 ng/mg
sC5b-9/Cr [29]: 4.8 µg/mmol
Urine sC5b-9 (Patient D, 200 mg TID, Day 1 predose): 28.1 ng/mL
Urine sC5b-9 (Patient D, 200 mg TID, Day 4): 18.5 ng/mL
sC5b-9/ALB (Patient D, 200 mg TID, Day 4): 15 ng/mg
sC5b-9/Cr (Patient D, 200 mg TID, Day 4): 4.1 µg/mmol
Urine sC5b-9 (Patient D, 200 mg TID, Day 7): 15.8 ng/mL
sC5b-9/ALB [30]: 43 ng/mg
sC5b-9/Cr [30]: 14.3 µg/mmol
Urine sC5b-9 (Patient D, 200 mg TID, Day 10): 8.9 ng/mL
sC5b-9/ALB (Patient D, 200 mg TID, Day 10): 14 ng/mg
sC5b-9/Cr (Patient D, 200 mg TID, Day 10): 8.9 µg/mmol
Urine sC5b-9 (Patient D, 200 mg TID, Day 14): 12.0 ng/mL
sC5b-9/ALB (Patient D, 200 mg TID, Day 14): 13 ng/mg
sC5b-9/Cr (Patient D, 200 mg TID, Day 14): 3.9 µg/mmol
Urine sC5b-9 [31]: 20.3 ng/mL
sC5b-9/ALB [31]: 10 ng/mg
sC5b-9/Cr [31]: 4.8 µg/mmol
Urine sC5b-9 [32]: 15.3 ng/mL
sC5b-9/ALB [32]: 9 ng/mg
sC5b-9/Cr [32]: 5.3 µg/mmol
